Values joined by “and” are separate entries in the source; they are usually repeats but may differ in a detail not shown here. Equal entries are not always repeated. Where two headings read alike, the source gives them in different places.
Experiments:
[1] = test system: asexual P. falciparum 3D7 wild-type parasites; assay: P. falciparum asexual growth inhibition assay (SYBR Safe DNA replication); type: cell-based, Plasmodium falciparum; conditions: for P. falciparum asexual growth, percentage of control: replicate values, source data Fig. 2B; for IC90 / IC50: Plasmodium falciparum; for IC50: read-out: IC50, P. falciparum asexual growth inhibition
Method in brief: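 Sorbitol-synchronised ring-stage cultures at 1% parasitaemia and 1% haematocrit were exposed to 2-fold compound dilutions at 37 °C under microaerophilic conditions for 24, 48 or 72 h. Growth was read by SYBR Safe fluorescence of freeze-thaw lysates, with 200 nM chloroquine or artesunate defining background.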

[2] = test system: Toxoplasma gondii tachyzoites (RH strain); assay: Toxoplasma growth inhibition assay (tdTomato fluorescence, in HFF cells); type: cell-based; conditions: Toxoplasma gondii, HFF, 72 h, read-out: IC50, T. gondii tachyzoite growth inhibition
[3] = test system: human embryonic kidney cells (HEK293); assay: Human embryonic kidney cell viability assay (MTT); type: cell-based; conditions: Homo sapiens, HEK293, 96 h, read-out: IC50, human embryonic kidney cell inhibition (viability)
Method in brief: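 HEK293 cells, 5,000 per well, exposed to serially diluted compound for 96 hours; 10 µg/mL cycloheximide as background control. Viability by MTT (0.45 mg/mL, 2 h), SDS solubilisation, absorbance at 570 nm.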

P. berghei liver stages = assay: Plasmodium berghei liver stage growth inhibition assay (luminescence, in Huh7 cells); conditions: for P. berghei liver stage growth, dose-response data points (Figure 3A): replicate data points
Description: Growth inhibition or cell viability were assessed by incubation with a serial dilution of test compounds, solvent controls (DMSO, ethanol, ethyl acetate), or culture media alone in 96-well plates, with detection of fluorescence, luminescence, or absorbance in microplate readers after 24–96 h unless otherwise specified.
Huh7 cells were seeded at a density of 10,000 cells per well of a 96-well plate, or 20,000 cells per collagen-coated coverslip. After 24 h, test compounds were added the wells were inoculated with P. berghei liver stage sporozoites dissected from infected A. stephensi salivary glands with 5000–10,000 sporozoites per well or 10,000–20,000 sporozoites per coverslip. Uninfected wells served as a control for background luminescence. Luminescence signal was measured 48 h post-invasion by addition of 1:1 ONE-Glo^TM substrate (Promega) with a luminescence microplate reader. Coverslips were fixed, stained, and imaged, with all parasites on each coverslip imaged and delineated as described (Petersen et al, [2017]) using Fiji ImageJ (Schindelin et al, [2012]). Data are presented as a percentage of the size or parasite number of the solvent control to normalize for differences between experiments.
Growth inhibition data were normalised by subtracting background fluorescence, luminescence, absorbance, or percentage of cells from a no-growth or no-viability control (high drug concentration, no-parasite control, or time = 0 measurement as specified), and expressed as a percentage of the growth or cell percentage in the negative control (culture media alone or solvent control) at the indicated timepoint (or to the highest measurement reached during the assay for Fig. EV3).
Plasmodium berghei ANKA Bergreen (22) or GFP-Luc (RMgm-29) (23), respectively
expressing green fluorescent protein (GFP) or a GFP-Luciferase fusion protein, were
maintained under routine conditions in SWR/J Mus musculus mice and Anopheles stephensi
Growth inhibition of P. berghei liver-stages was investigated after infection of human
hepatoma cells (Huh7) and subsequent growth for 48 hours at 37° C, 5% CO2 and 80%
humidity. The day prior to infection, 10,000 Huh7 cells were seeded in dark-sided 96-well
microplates (Greiner Bio One). On the day of infection, compounds or solvent controls
(DMSO) were serially diluted in culture media and 5,000 – 10,000 Bergreen or GFP-Luc
sporozoites were added per well following dissection from infected A. stephensi salivary
glands. Uninfected wells served as control for background luminescence. To promote invasion,
the plates were centrifuged at 1,550 g for 5 minutes. After 60 minutes, the media was
completely replaced with fresh, prewarmed media with the matching drug concentrations.
Media was partially replaced with new drug dilutions over the following two days. 48 hours
post-infection, luminescence signal was measured by addition of 1:1 ONE-GloTM substrate
(Promega) to the wells, followed by detection at 300 – 700 nm using a Synergy HTX plate

COc1cc(NC(C)CCCN)c2ncccc2c1 (stereo not shown) [Primaquine, primaquine, reference compound]
P. falciparum asexual growth, percentage of control ([1]; 0.048828130 uM, 24 h): 103.5% and 112.3% and 122.3% and 109.6% and 103.8% and 107.6%
P. falciparum asexual growth, percentage of control ([1]; 0.097656250 uM, 24 h): 133.8% and 115.8% and 109.7% and 98.88% and 101.1% and 114.9%
P. falciparum asexual growth, percentage of control ([1]; 0.195312500 uM, 24 h): 92.88% and 92.1% and 75.42% and 87.41% and 53.27% and 109.2% and 104.7% and 89.49%
P. falciparum asexual growth, percentage of control ([1]; 0.390625000 uM, 24 h): 101% and 92.22% and 85.08% and 86.3% and 91.98% and 87.62% and 106.4% and 103.7% and 80.96%
P. falciparum asexual growth, percentage of control ([1]; 0.781250000 uM, 24 h): 87.28% and 86.95% and 87.11% and 97.7% and 104.2% and 88.59% and 104.3% and 96.91% and 94.25%
P. falciparum asexual growth, percentage of control ([1]; 1.562500000 uM, 24 h): 104.9% and 96.53% and 90.19% and 106.5% and 37.96% and 92.95% and 112.9% and 86.68% and 94.95%
P. falciparum asexual growth, percentage of control ([1]; 3.125000000 uM, 24 h): 98.46% and 91.72% and 71.7% and 85.23% and 66.97% and 105.3% and 93.44% and 88.46% and 77.37%
P. falciparum asexual growth, percentage of control ([1]; 6.250000000 uM, 24 h): 70.33% and 75.07% and 74.44% and 55.89% and 62.38% and 52.2% and 93.44% and 79.9% and 76.14%
P. falciparum asexual growth, percentage of control ([1]; 12.500000000 uM, 24 h): 59.74% and 51.28% and 54.52% and 22.36% and 27.69% and 24.85% and 101.7% and 67.6% and 71.11%
P. falciparum asexual growth, percentage of control ([1]; 25.000000000 uM, 24 h): 32.29% and 12.73% and 20.21% and 8.779% and -12.09% and 0.142% and 58.69% and 51.9% and 34.08%
P. falciparum asexual growth, percentage of control ([1]; 50.000000000 uM, 24 h): 4.003% and -4.24% and -21.02% and -13.23% and -31.85% and -34.48% and 21.18% and 8.951% and 16.84%
IC90 ([1]; 3D7, 24 h): 41 µM
IC50 ([1]; 3D7, 48 h): 6.5 µM
IC90 ([1]; 3D7, 72 h): 11.4 µM
IC50 ([1]; 3D7, 72 h): 2.6 µM
IC50 ([1]; 3D7, 24 h, starting at ring stages): 11.5 µM
IC50 [2]: 9.7 µM
IC50 [3]: 10.6 µM
P. berghei liver stage growth, dose-response data points (Figure 3A) (P. berghei liver stages; 0.015241580 uM): 93.67 and 95.48 and 110.9 and 122 and 82.26 and 95.7 and 96.97 and 92.94 and 110.1
P. berghei liver stage growth, dose-response data points (Figure 3A) (P. berghei liver stages; 0.045724740 uM): 108.1 and 96.38 and 105.4 and 91.89 and 98.42 and 97.49 and 70.73 and 69.42 and 92.75
P. berghei liver stage growth, dose-response data points (Figure 3A) (P. berghei liver stages; 0.137174210 uM): 105.4 and 121.7 and 113.6 and 95.08 and 83.35 and 110.5 and 75.51 and 85.25 and 113.8
Figure 3E dose-response value (replicates) (P. berghei liver stages; 0.212890630 uM): 110.2 and 105.1 and 104.6 and 108.5 and 84.79 and 105.5 and 104.2 and 95.71 and 86.14 and 93.88 and 93.04
P. berghei liver stage growth, dose-response data points (Figure 3A) (P. berghei liver stages; 0.411522630 uM): 105.4 and 115.4 (2×) and 82.34 and 95.47 and 107.6 and 82.44 and 82.72 and 115.2
Figure 3E dose-response value (replicates) (P. berghei liver stages; 0.425781250 uM): 102.3 and 92.15 and 106 and 104.8 and 98.19 and 93.53 and 98.84 and 93.27 and 90.28
Figure 3E dose-response value (replicates) (P. berghei liver stages; 0.851562500 uM): 96.31 and 95.61 and 102.1 and 104.8 and 94.91 and 106 and 91.69 and 92.32 and 88 and 100 and 90.58 and 89.08
P. berghei liver stage growth, dose-response data points (Figure 3A) (P. berghei liver stages; 1.234567900 uM): 95.48 and 107.2 and 78.84 and 85.44 and 95.31 and 57.42 and 69.42 and 85.07
Figure 3E dose-response value (replicates) (P. berghei liver stages; 1.703125000 uM): 88.27 and 98.56 and 102.4 and 105.9 and 83.84 and 86.74 and 92.09 and 88.62
Figure 3E dose-response value (replicates) (P. berghei liver stages; 3.406250000 uM): 97.54 and 95.04 and 93.86 and 98.31 and 97.98 and 92.53 and 88.24 and 88.2 and 80.51 and 79.64 and 66.71 and 72.77
P. berghei liver stage growth, dose-response data points (Figure 3A) (P. berghei liver stages; 3.703703700 uM): 52.94 and 55.66 and 62.9 and 27.87 and 29.81 and 24.61 and 21.71 and 31.37 and 31.18
Figure 3E dose-response value (replicates) (P. berghei liver stages; 6.812500000 uM): 52.26 and 84.6 and 91.44 and 91.35 and 88.74 and 72.33 and 82.87 and 73.41 and 70.7 and 48.65 and 46.53 and 51.73
P. berghei liver stage growth, dose-response data points (Figure 3A) (P. berghei liver stages; 11.111111100 uM): 2.262 and -2.262 (2×) and 1.062 and 1.606 and 2.072 and 3.062 and 2.968 and 4.186
Figure 3E dose-response value (replicates) (P. berghei liver stages; 13.625000000 uM): 24.3 and 46.65 and 52.62 and 55.32 and 16.73 and 22.67 and 37.29 and 44.07 and 37.02 and 20.99 and 23.94 and 27.39
Figure 3E dose-response value (replicates) (P. berghei liver stages; 27.250000000 uM): 0.8156 and 1.015 and 0.9272 and 0.814 and 1.004 and 2.12 and 0.3528 and 0.5411 and 2.525 and 0.8793 and 0.07968 and 0.8298
P. berghei liver stage growth, dose-response data points (Figure 3A) (P. berghei liver stages; 33.333333300 uM): -1.357 (3×) and 0.4403 and 0.2849 and 0.3626 and 1.093 and 1.749 and 0.9997
P. berghei liver stage growth, dose-response data points (Figure 3A) (P. berghei liver stages; 100.000000000 uM): -3.167 and -0.4525 and 0.4525 and -0.0259 and 0.0518 (2×) and -0.03124 (2×) and 0.5311
Figure 3E dose-response value (replicates) (P. berghei liver stages; 109.000000000 uM): 3.02 and 0.4007 and 0.2308 and 0.4951 and 3.634 and 2.894 and 0.4747 and 1.134 and 1.25 and 3.638 and 3.687 and 3.498
IC50 (P. berghei liver stages; Plasmodium berghei, Huh-7, 48 h, read-out: IC50, P. berghei liver stage growth inhibition): 2.9 µM

Source: PMC11251039, “Harnessing cholesterol uptake of malaria parasites for therapeutic applications” (EMBO Molecular Medicine, 2024)
